Measured values from US9187464B2, “TRPV4 antagonists” (GlaxoSmithKline Intellectual Property (No. 2) Limited, priority 2011, dated 2015).

Target: T1, human TRPV4 (Homo sapiens, UniProt Q9HBA0)
T1 construct: expressed in transfected cells; host or cells: HEK-293-MSR-II cells transduced with 1% BacMam virus
Assay: Ligand-gated assay (Fluo4 calcium, FLIPR; inhibition of agonist-induced activation)
Format: cell-based
Settings: HEK-293-MSR-II cells transduced with BacMam human TRPV4; agonist at EC80
Protocol: TRP channel activation/opening results in an influx of divalent and monovalent cations including calcium. The resulting changes in intracellular calcium were monitored using a calcium selective fluorescent dye Fluo4 (MDS Analytical Technologies). Dye loaded cells were initially exposed to test compound to verify a lack of agonist activity. Cells were subsequently activated by addition of an agonist and inhibition of the agonist-induced activation was recorded. Human embryonic kidney 293 cells stably expressing the macrophage scavenger receptor class II (HEK-293-MSR-II) and transduced with 1% BacMam (J. P. Condreay, S. M. Witherspoon, W. C. Clay and T. A. Kost, Proc Natl Acad Sci 96 (1999), pp. 127-132) virus expressing the human TRPV4 gene were plated at 15000 cells/well in a volume of 50 μL in a 384 well poly-D lysine coated plate. Cells were incubated for 24 hours at 37 degrees and 5% CO2. Media was then aspirated using a Tecan Plate-washer and replaced with 20 μL of dye loading buffer: HBSS, 500 uM Brilliant Black (MDS Analytical Technologies), 2 uM Fluo-4. Dye loaded plates were then incubated in the dark at room temperature for 1-1.5 hours. 10 μL of test compound diluted in HBSS (HBSS with 1.5 mM Calcium Chloride, 1.5 mM Magnesium Chloride and 10 mM HEPES. pH 7.4), +0.01% Chaps was added to the plate, incubated for 10 min at room temperature in the dark and then 10 μL of agonist was added at a final concentration equal to the agonist EC80. Calcium release was measured using the FLIPRtetra (MDS Analytical Technologies) or FLIPR384 (MDS Analytical Technologies).
IC50 between 0.1-10 nM (+++), >10-50 nM (++), >50-500 nM (+).

T1 sequence (Q9HBA0 whole entry): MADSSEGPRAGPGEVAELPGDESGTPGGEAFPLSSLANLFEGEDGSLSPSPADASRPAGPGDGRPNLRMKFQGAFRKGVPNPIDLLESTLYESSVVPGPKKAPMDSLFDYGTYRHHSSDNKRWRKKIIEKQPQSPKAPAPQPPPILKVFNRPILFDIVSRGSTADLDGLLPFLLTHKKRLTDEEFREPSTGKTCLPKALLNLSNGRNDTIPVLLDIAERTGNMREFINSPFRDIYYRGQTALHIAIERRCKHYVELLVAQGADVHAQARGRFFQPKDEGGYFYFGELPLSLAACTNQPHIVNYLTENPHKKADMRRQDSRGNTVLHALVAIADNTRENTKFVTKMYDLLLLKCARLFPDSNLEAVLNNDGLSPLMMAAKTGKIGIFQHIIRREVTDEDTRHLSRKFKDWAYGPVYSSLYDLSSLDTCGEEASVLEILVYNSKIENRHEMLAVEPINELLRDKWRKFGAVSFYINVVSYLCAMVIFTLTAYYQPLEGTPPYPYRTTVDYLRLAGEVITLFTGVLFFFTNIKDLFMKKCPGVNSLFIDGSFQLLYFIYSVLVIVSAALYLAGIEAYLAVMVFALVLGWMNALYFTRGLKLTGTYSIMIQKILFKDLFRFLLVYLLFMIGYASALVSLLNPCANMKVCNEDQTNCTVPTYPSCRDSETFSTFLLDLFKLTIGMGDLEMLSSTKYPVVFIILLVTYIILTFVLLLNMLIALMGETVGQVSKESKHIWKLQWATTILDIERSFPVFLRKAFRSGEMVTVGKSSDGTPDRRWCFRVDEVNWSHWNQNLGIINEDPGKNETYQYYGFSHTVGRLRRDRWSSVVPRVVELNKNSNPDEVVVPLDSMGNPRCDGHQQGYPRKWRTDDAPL

Compound	IC50 [nM]
CC(C)(C)n1cc(N2C[C@@]3(CCC[C@](C)(Cn4cnc5ccc(C#N)cc54)C3)OC2=O)cn1 [Example 43, 1-(((5S,7S)-3-(1-(tert-butyl)-1H-pyrazol-4-yl)-7-methyl-2-oxo-1-oxa-3-azaspiro[4.5]decan-7-yl)methyl)-1H-benzo[d]imidazole-6-carbonitrile]	10 to 50
CC(C)(C)c1noc(N2C[C@@]3(CCC[C@H](Cn4cnc5ccc(C#N)cc54)C3)OC2=O)c1F [Example 47, 1-(((5S,7S)-3-(3-(tert-butyl)-4-fluoroisoxazol-5-yl)-2-oxo-1-oxa-3-azaspiro[4.5]decan-7-yl)methyl)-1H-benzo[d]imidazole-6-carbonitrile]	0.1 to 10
CC(C)(C)c1ccc(N2C[C@@]3(CCC[C@](C)(Cn4cnc5ccc(C#N)cc54)C3)OC2=O)nn1 [Example 48, 1-(((5S,7S)-3-(6-(tert-butyl)pyridazin-3-yl)-7-methyl-2-oxo-1-oxa-3-azaspiro[4.5]decan-7-yl)methyl)-1H-benzo[d]imidazole-6-carbonitrile]	0.1 to 10
Cn1ccc(-c2cc(N3C[C@@]4(CCC[C@](C)(Cn5cnc6ccc(C#N)cc65)C4)OC3=O)on2)n1 [Example 51, 1-(((5S,7S)-7-methyl-3-(3-(1-methyl-1H-pyrazol-3-yl)isoxazol-5-yl)-2-oxo-1-oxa-3-azaspiro[4.5]decan-7-yl)methyl)-1H-benzo[d]imidazole-6-carbonitrile]	10 to 50
C[C@]1(Cn2cnc3ccc(C#N)cc32)CCC[C@@]2(CN(c3ncc(C(F)(F)F)cn3)C(=O)O2)C1 [Example 54, 1-(((5S,7S)-7-methyl-2-oxo-3-(5-(trifluoromethyl)pyrimidin-2-yl)-1-oxa-3-azaspiro[4.5]decan-7-yl)methyl)-1H-benzo[d]imidazole-6-carbonitrile]	50 to 500
Cc1noc(N2C[C@@]3(CCC[C@](C)(Cn4cnc5ccc(C#N)cc54)C3)OC2=O)c1C [Example 57, 1-(((5S,7S)-3-(3,4-Dimethylisoxazol-5-yl)-7-methyl-2-oxo-1-oxa-3-azaspiro[4.5]decan-7-yl)methyl)-1H-benzo[d]imidazole-6-carbonitrile]	0.1 to 10
N#Cc1ccc2ncn(C[C@H]3CCC[C@]4(C3)CN(Cc3csc(-c5ccccc5)n3)C(=O)O4)c2c1 [Example 63, 1-({(5S,7S)-2-oxo-3-[(2-phenyl-1,3-thiazol-4-yl)methyl]-1-oxa-3-azaspiro[4.5]dec-7-yl}methyl)-1H-benzimidazole-6-carbonitrile]	10 to 50
CC(C)(CN1C[C@@]2(CCC[C@H](Cn3cnc4ccc(C#N)cc43)C2)OC1=O)c1nc(C2CCOCC2)no1 [Example 65, 1-[((5S,7S)-3-{2-methyl-2-[3-(tetrahydro-2H-pyran-4-yl)-1,2,4-oxadiazol-5-yl]propyl}-2-oxo-1-oxa-3-azaspiro[4.5]dec-7-yl)methyl]-1H-benzimidazole-6-carbonitrile]	10 to 50
N#Cc1ccc2ncn(C[C@H]3CCC[C@]4(C3)CN(Cc3cc(-c5ccc(Cl)cc5)no3)C(=O)O4)c2c1 [Example 67, 1-[((5S,7S)-3-{[3-(4-chlorophenyl)-5-isoxazolyl]methyl}-2-oxo-1-oxa-3-azaspiro[4.5]dec-7-yl)methyl]-1H-benzimidazole-6-carbonitrile]	10 to 50
N#Cc1ccc2ncn(C[C@H]3CCC[C@]4(C3)CN(Cc3cc(-c5ccccc5)no3)C(=O)O4)c2c1 [Example 68, 1-({(5S,7S)-2-oxo-3-[(3-phenyl-5-isoxazolyl)methyl]-1-oxa-3-azaspiro[4.5]dec-7-yl}methyl)-1H-benzimidazole-6-carbonitrile]	10 to 50
Cn1nc(CN2C[C@@]3(CCC[C@H](Cn4cnc5ccc(C#N)cc54)C3)OC2=O)cc1-c1ccccc1 [Example 69, 1-({(5S,7S)-3-[(1-methyl-5-phenyl-1H-pyrazol-3-yl)methyl]-2-oxo-1-oxa-3-azaspiro[4.5]dec-7-yl}methyl)-1H-benzimidazole-6-carbonitrile]	50 to 500
N#Cc1ccc2ncn(C[C@H]3CCC[C@]4(C3)CN(Cc3nnc(-c5ccccc5)[nH]3)C(=O)O4)c2c1 [Example 71, 1-({(5S,7S)-2-oxo-3-[(3-phenyl-1H-1,2,4-triazol-5-yl)methyl]-1-oxa-3-azaspiro[4.5]dec-7-yl}methyl)-1H-benzimidazole-6-carbonitrile]	50 to 500

The remaining lines, values ahead:

IC50 [nM]	Compound
0.1 to 10	CC(C)(C)c1noc(N2C[C@@]3(CCC[C@](C)(Cn4cnc5ccc(C#N)cc54)C3)OC2=O)c1F [Example 44, 1-(((5S,7S)-3-(3-(tert-butyl)-4-fluoroisoxazol-5-yl)-7-methyl-2-oxo-1-oxa-3-azaspiro[4.5]decan-7-yl)methyl)-1H-benzo[d]imidazole-6-carbonitrile]
0.1 to 10	CC(F)(F)c1cc(N2C[C@@]3(CCC[C@](C)(Cn4cnc5ccc(C#N)cc54)C3)OC2=O)on1 [Example 45, 1-(((5S,7S)-3-(3-(1,1-difluoroethyl)isoxazol-5-yl)-7-methyl-2-oxo-1-oxa-3-azaspiro[4.5]decan-7-yl)methyl)-1H-benzo[d]imidazole-6-carbonitrile]
0.1 to 10	Cc1c(C(C)(C)C)noc1N1C[C@@]2(CCC[C@H](Cn3cnc4ccc(C#N)cc43)C2)OC1=O [Example 46, 1-(((5S,7S)-3-(3-(tert-butyl)-4-methylisoxazol-5-yl)-2-oxo-1-oxa-3-azaspiro[4.5]decan-7-yl)methyl)-1H-benzo[d]imidazole-6-carbonitrile]
0.1 to 10	CC(C)(C)c1cnc(N2C[C@@]3(CCC[C@](C)(Cn4cnc5ccc(C#N)cc54)C3)OC2=O)nc1 [Example 49, 1-(((5S,7S)-3-(5-(tert-butyl)pyrimidin-2-yl)-7-methyl-2-oxo-1-oxa-3-azaspiro[4.5]decan-7-yl)methyl)-1H-benzo[d]imidazole-6-carbonitrile]
0.1 to 10	CC(C)(C)n1ncc(N2C[C@@]3(CCC[C@](C)(Cn4cnc5ccc(C#N)cc54)C3)OC2=O)n1 [Example 50, 1-(((5S,7S)-3-(2-(tert-butyl)-2H-1,2,3-triazol-4-yl)-7-methyl-2-oxo-1-oxa-3-azaspiro[4.5]decan-7-yl)methyl)-1H-benzo[d]imidazole-6-carbonitrile]
50 to 500	CC(C)(C)n1cc(N2C[C@@]3(CCC[C@](C)(Cn4cnc5ccc(C#N)cc54)C3)OC2=O)nn1 [Example 52, 1-(((5S,7S)-3-(1-(tert-butyl)-1H-1,2,3-triazol-4-yl)-7-methyl-2-oxo-1-oxa-3-azaspiro[4.5]decan-7-yl)methyl)-1H-benzo[d]imidazole-6-carbonitrile]
0.1 to 10	CC(C)(C)c1cnc(N2C[C@@]3(CCC[C@](C)(Cn4cnc5ccc(C#N)cc54)C3)OC2=O)cn1 [Example 53, 1-(((5S,7S)-3-(5-(tert-butyl)pyrazin-2-yl)-7-methyl-2-oxo-1-oxa-3-azaspiro[4.5]decan-7-yl)methyl)-1H-benzo[d]imidazole-6-carbonitrile]
0.1 to 10	COC(C)(C)c1ccc(N2C[C@@]3(CCC[C@](C)(Cn4cnc5ccc(C#N)cc54)C3)OC2=O)cn1 [Example 55, 1-(((5S,7S)-3-(6-(2-methoxypropan-2-yl)pyridin-3-yl)-7-methyl-2-oxo-1-oxa-3-azaspiro[4.5]decan-7-yl)methyl)-1H-benzo[d]imidazole-6-carbonitrile]
10 to 50	C=C(C)c1cc(N2C[C@@]3(CCC[C@](C)(Cn4cnc5ccc(C#N)cc54)C3)OC2=O)on1 [Example 56, 1-(((5S,7S)-7-methyl-2-oxo-3-(3-(prop-1-en-2-yl)isoxazol-5-yl)-1-oxa-3-azaspiro[4.5]decan-7-yl)methyl)-1H-benzo[d]imidazole-6-carbonitrile]
50 to 500	Cc1noc(N2C[C@@]3(CCC[C@H](Cn4cnc5ccc(C#N)cc54)C3)OC2=O)c1C [Example 58, 1-(((5S,7S)-3-(3,4-dimethylisoxazol-5-yl)-2-oxo-1-oxa-3-azaspiro[4.5]decan-7-yl)methyl)-1H-benzo[d]imidazole-6-carbonitrile]
0.1 to 10	N#Cc1ccc2ncn(C[C@H]3CCC[C@]4(C3)CN(Cc3cccc(-c5ccccc5)n3)C(=O)O4)c2c1 [Example 64, 1-({(5S,7S)-2-oxo-3-[(6-phenyl-2-pyridinyl)methyl]-1-oxa-3-azaspiro[4.5]dec-7-yl}methyl)-1H-benzimidazole-6-carbonitrile]
10 to 50	N#Cc1ccc2ncn(C[C@H]3CCC[C@]4(C3)CN(Cc3nc(-c5ccccc5)cs3)C(=O)O4)c2c1 [Example 66, 1-({(5S,7S)-2-oxo-3-[(4-phenyl-1,3-thiazol-2-yl)methyl]-1-oxa-3-azaspiro[4.5]dec-7-yl}methyl)-1H-benzimidazole-6-carbonitrile]
0.1 to 10	COc1ccc(-c2csc(CN3C[C@@]4(CCC[C@H](Cn5cnc6ccc(C#N)cc65)C4)OC3=O)n2)cc1C [Example 70, 1-{[(5S,7S)-3-({4-[3-methyl-4-(methyloxy)phenyl]-1,3-thiazol-2-yl}methyl)-2-oxo-1-oxa-3-azaspiro[4.5]dec-7-yl]methyl}-1H-benzimidazole-6-carbonitrile]
